Measurements as given in US10383861B2, “3-(1H-pyrrolo[2,3-C]pyridin-2-yl)-1H-pyrazolo[3,4-C]pyridines and therapeutic uses thereof” (Samumed, LLC, priority 2015, dated 2019).

What was measured:
Format in all cases: cell-based
SW480 colon cancer cells = assay: Cell viability assay (CellTiter-Blue) in SW480 colon cancer cells; conditions: Homo sapiens; for EC50: 96 h, SW480 cell viability, four days, CellTiter-Blue; for inhibition at 10 µM: SW480, read-out: percent inhibition at 10 μM
Protocol: Representative compounds were screened using the following assay procedure to assess the effect on cell viability as described below.
Approximately 2×10^3 SW480 colon cancer cells were seeded into each well and allowed to incubate in the presence or absence of compound for four days at 37° C./5% CO2. Eight replicates of DMSO-treated cells served as controls and cells treated with compound were performed in duplicate.
After incubation, 20 μL of CellTiter-Blue (Promega) was added to each well allowed to incubate for approximately 3 hours. This reagent was a buffered solution which contains resazurin, metabolically active cells were able to reduce rezarurin (blue) into resorufin (pink) which was highly fluorescent. This measured fluorescence was used as a readout for cell viability.

IL-6 = IL-6 inhibition in LPS-stimulated THP-1 cells (HTRF); conditions: Homo sapiens; for inhibition at 10 µM: THP-1, read-out: percent inhibition at 10 μM; for EC50: THP-1 cells, LPS 500 ng/mL, 22 hours, IL6 HTRF
Protocol: THP-1 cells were cultured in basal media with 1% FBS for 24 hours before the start of the assay. […] THP-1 cells were plated at 5000 cells/well in the 384-well plates and incubated at 37° C. for 2 h. 500 ng/mL of LPS was added after 2 hours and cells were incubated for another 22 hours at 37° C. Plates were spun in a centrifuge for 1 minute at […] and a mixture of anti-IL6 XL665, and anti-IL6 Cryptate diluted in reconstitution buffer (Cisbio Inc.) was added to each well. Following incubation for 3 hrs at room temperature, Homogeneous Time-Resolved Fluorescence (HTRF) was measured using the Envision (Perkin Elmer) at 665 nm and […]. The ratio of fluorescence at 665 nm to 620 nm was used as a readout for IL6 quantification. All samples were processed in duplicate. Readings were normalized to DMSO treated cells and normalized activities were utilized for EC50 calculations using the dose-response log (inhibitor) vs. response -variable slope (four parameters) nonlinear regression feature available in GraphPad Prism 5.0 (or Dotmatics).

Wnt activity = Wnt activity screening assay, Sp5-Luc reporter gene in SW480 cells; conditions: Homo sapiens; for EC50: Sp5-Luc reporter, SW480 cells, overnight incubation; for inhibition at 10 µM: SW480, read-out: percent inhibition at 10 μM
Description: The screening assay for Wnt activity is described as follows. Reporter cell lines can be generated by stably transducing cancer cell lines (e.g., colon cancer) or primary cells (e.g., IEC-6 intestinal cells) with a lentiviral construct that includes a Wnt-responsive promoter driving expression of the firefly luciferase gene.
SW480 colon carcinoma cells were transduced with a lentiviral vector expressing luciferase with a human Sp5 promoter consisting of a sequence of eight TCF/LEF binding sites. SW480 cells stably expressing the Sp5-Luc reporter gene and a hygromycin resistance gene were selected by treatment with 150 μg/mL of hygromycin for 7 days. These stably transduced SW480 cells were expanded in cell culture and used for all further screening activities. […] For Sp5-Luc reporter gene assays, the cells were plated at 4,000 cells/well in 384-well plates with medium containing 1% fetal bovine serum and incubated overnight at 37° C. and 5% CO2. Following incubation, 20 μl of BrightGlo luminescence reagent (Promega) was added to each well of the 384-well assay plates. The plates were placed on an orbital shaker for 2 min and then luminescence was quantified using the Envision (Perkin Elmer) plate reader. Readings were normalized to DMSO only treated cells, and normalized activities were utilized for EC50 calculations using the dose-response log (inhibitor) vs. response -variable slope (four parameters) nonlinear regression feature available in GraphPad Prism 5.0 (or Dotmatics).

[1] = system: primary human fibroblasts derived from IPF patients (LL29 cells); assay: Inhibition of the fibrotic process: αSMA staining in TGF-β1 treated LL29 fibroblasts; conditions: Fibroblast; for EC50: 96 h, LL29 cells, TGF-β1 20 ng/mL, 4 days, % αSMA positive cells; for inhibition at 10 µM: read-out: percent inhibition at 10 μM
Protocol: Representative compounds were screened using primary human fibroblasts (derived from IPF patients) treated with TGF-β1 to determine their ability to inhibit the fibrotic process.
LL29 cells are plated at 1,500 cells/well in 80 μL/well F12 medium supplemented with 1% Fetal Bovine Serum. […] Wells treated with TGF-β1 and containing DMSO were used as controls. […] Following incubation for 4 days, SYTOX green nucleic acid stain (Life Technologies [Thermo Fisher Scientific]) was added to the wells at a final concentration of 1 μM and incubated at room temperature for 30 min.

Row | Compound | EC50 (SW480 colon cancer cells) [µM] | inhibition at 10 µM (IL-6) [%] | EC50 (IL-6) [µM] | EC50 (Wnt activity) [µM] | EC50 [1] [µM] | inhibition at 10 µM (SW480 colon cancer cells) [%] | inhibition at 10 µM (Wnt activity) [%] | inhibition at 10 µM [1] [%]
1 | c1cc(-c2cc3c(-c4cc5c(N6CCCCC6)cncc5[nH]4)n[nH]c3cn2)ccn1 [Compound 186, 3-(4-(Piperidin-1-yl)-1H-pyrrolo[2,3-c]pyridin-2-yl)-5-(pyridin-4-yl)-1H-pyrazolo[3,4-c]pyridine] | 3.95 | 20.1 | > 10 | 5.51 | 4.87 |  |  | 
2 | CN(C)c1cncc(-c2cc3c(-c4cc5ccncc5[nH]4)n[nH]c3cn2)c1 [Compound 259, 5-(3-(1H-Pyrrolo[2,3-c]pyridin-2-yl)-1H-pyrazolo[3,4-c]pyridin-5-yl)-N,N-dimethylpyridin-3-amine] | 0.82 |  | 3.58 | 2.86 | 0.606 |  |  | 
3 | CN(C)Cc1cncc(-c2cc3c(-c4cc5ccncc5[nH]4)n[nH]c3cn2)c1 [Compound 265, 1-(5-(3-(1H-Pyrrolo[2,3-c]pyridin-2-yl)-1H-pyrazolo[3,4-c]pyridin-5-yl)pyridin-3-yl)-N,N-dimethylmethanamine] | 2.65 |  | 3.11 | 2.54 | 1.48 |  |  | 
4 | O=C(Nc1cncc(-c2cc3c(-c4cc5ccncc5[nH]4)n[nH]c3cn2)c1)C1CC1 [Compound 272, N-(5-(3-(1H-Pyrrolo[2,3-c]pyridin-2-yl)-1H-pyrazolo[3,4-c]pyridin-5-yl)pyridin-3-yl)cyclopropanecarboxamide] | > 10 |  | 3.14 | 0.977 | 0.467 | 29.9 |  | 
5 | c1cc2cc(-c3n[nH]c4cnc(-c5cncc(CNCC6CCCC6)c5)cc34)[nH]c2cn1 [Compound 277, 1-(5-(3-(1H-Pyrrolo[2,3-c]pyridin-2-yl)-1H-pyrazolo[3,4-c]pyridin-5-yl)pyridin-3-yl)-N-(cyclopentylmethyl)methanamine] | 3.96 |  | 3.58 | 3.48 | 1.81 |  |  | 
6 | Cc1ccncc1-c1cc2c(-c3cc4c(-c5ccoc5)cncc4[nH]3)n[nH]c2cn1 [Compound 313, 3-(4-(Furan-3-yl)-1H-pyrrolo[2,3-c]pyridin-2-yl)-5-(4-methylpyridin-3-yl)-1H-pyrazolo[3,4-c]pyridine] | 1.74 |  | 4.27 | 1.59 | 0.599 |  |  | 
7 | CC(C)C(=O)Nc1cncc(-c2cc3c(-c4cc5c(-c6ccoc6)cncc5[nH]4)n[nH]c3cn2)c1 [Compound 317, N-(5-(3-(4-(Furan-3-yl)-1H-pyrrolo[2,3-c]pyridin-2-yl)-1H-pyrazolo[3,4-c]pyridin-5-yl)pyridin-3-yl)isobutyramide] | > 10 |  | 1 | 3.65 | 4.88 | 0 |  | 
8 | FC1(F)CCN(Cc2cncc(-c3cc4c(-c5cc6c(-c7cccs7)cncc6[nH]5)n[nH]c4cn3)c2)C1 [Compound 362, 5-(5-((3,3-Difluoropyrrolidin-1-yl)methyl)pyridin-3-yl)-3-(4-(thiophen-2-yl)-1H-pyrrolo[2,3-c]pyridin-2-yl)-1H-pyrazolo[3,4-c]pyridine] | 4.1 |  | 1.32 | 5.24 | 1.16 |  |  | 
9 | CC(C)(C)CC(=O)Nc1cncc(-c2cc3c(-c4cc5c(-c6cc(F)cc(CNS(C)(=O)=O)c6)cncc5[nH]4)n[nH]c3cn2)c1 [Compound 492, N-(5-(3-(4-(3-Fluoro-5-(methylsulfonamidomethyl)phenyl)-1H-pyrrolo[2,3-c]pyridin-2-yl)-1H-pyrazolo[3,4-c]pyridin-5-yl)pyridin-3-yl)-3,3-dimethylbutanamide] | > 10 | 29 | > 10 | > 10 | > 10 | 16.3 | 14.6 | 0
10 | CS(=O)(=O)NCc1cc(F)cc(-c2cncc3[nH]c(-c4n[nH]c5cnc(-c6cncc(NC(=O)C7CCCCC7)c6)cc45)cc23)c1 [Compound 499, N-(5-(3-(4-(3-Fluoro-5-(methylsulfonamidomethyl)phenyl)-1H-pyrrolo[2,3-c]pyridin-2-yl)-1H-pyrazolo[3,4-c]pyridin-5-yl)pyridin-3-yl)cyclohexanecarboxamide] | > 10 | 36.6 | > 10 | > 10 | > 10 | 15.5 | 11.3 | 0
11 | CS(=O)(=O)NCc1cc(F)cc(-c2cncc3[nH]c(-c4n[nH]c5cnc(-c6ccccn6)cc45)cc23)c1 [Compound 504, N-(3-Fluoro-5-(2-(5-(pyridin-2-yl)-1H-pyrazolo[3,4-c]pyridin-3-yl)-1H-pyrrolo[2,3-c]pyridin-4-yl)benzyl)methanesulfonamide] | 2.98 |  | 0.943 | 2.38 | 2.01 |  |  | 
12 | Fc1ccccc1-c1cncc2[nH]c(-c3n[nH]c4cnc(-c5cn[nH]c5)cc34)cc12 [Compound 539, 3-(4-(2-Fluorophenyl)-1H-pyrrolo[2,3-c]pyridin-2-yl)-5-(1H-pyrazol-4-yl)-1H-pyrazolo[3,4-c]pyridine] | > 10 | 0 | > 10 | > 10 | 2.43 | 3.6 | 8.6 | 
13 | c1cncc(-c2cncc3[nH]c(-c4n[nH]c5cnc(C6CCNCC6)cc45)cc23)c1 [Compound 553, 5-(Piperidin-4-yl)-3-(4-(pyridin-3-yl)-1H-pyrrolo[2,3-c]pyridin-2-yl)-1H-pyrazolo[3,4-c]pyridine] | > 10 | 18.1 | > 10 | > 10 | 1.19 | 11 | 8.3 | 
14 | c1ncc(-c2cc3c(-c4cc5c(N6CCCCC6)cncc5[nH]4)n[nH]c3cn2)cc1OC1CCCCC1 [Compound 607, 5-(5-(Cyclohexyloxy)pyridin-3-yl)-3-(4-(piperidin-1-yl)-1H-pyrrolo[2,3-c]pyridin-2-yl)-1H-pyrazolo[3,4-c]pyridine] | 1.3 |  | 3.17 | 1.34 | 0.532 |  |  | 
15 | CN(C)CCOc1cncc(-c2cc3c(-c4cc5c(-c6cccs6)cncc5[nH]4)n[nH]c3cn2)c1 [Compound 707, N,N-Dimethyl-2-((5-(3-(4-(thiophen-2-yl)-1H-pyrrolo[2,3-c]pyridin-2-yl)-1H-pyrazolo[3,4-c]pyridin-5-yl)pyridin-3-yl)oxy)ethan-1-amine] | > 10 | 41.3 | > 10 | > 10 | 5.1 | 0 | 5 | 
16 | Cn1cc(-c2cc3c(-c4cc5c(-c6cc(F)cc(CNS(C)(=O)=O)c6)cncc5[nH]4)n[nH]c3cn2)cn1 [Compound 764, N-(3-Fluoro-5-(2-(5-(1-methyl-1H-pyrazol-4-yl)-1H-pyrazolo[3,4-c]pyridin-3-yl)-1H-pyrrolo[2,3-c]pyridin-4-yl)benzyl)methanesulfonamide] | > 10 | 20 | > 10 | 1.03 | 2.42 | 9.3 |  | 
